According to PubChem BioAssay AID1259407 (Chemical Carcinogenesis Research Information System (CCRIS), 2018):
Calls of active or inactive are those of the source. The rule behind the calls is not given here.

Tested on: CCRIS mutagenicity, Ames/micronucleus/aberration tests
Test: CCRIS mutagenicity studies
[1] = Test System: AMES SALMONELLA TYPHIMURIUM, Strain/Indicator: TA97, Metabolic Activation: NONE, Method: PREINCUBATION
[2] = Test System: AMES SALMONELLA TYPHIMURIUM, Strain/Indicator: TA98, Metabolic Activation: NONE, Method: PREINCUBATION
[3] = Test System: AMES SALMONELLA TYPHIMURIUM, Strain/Indicator: TA100, Metabolic Activation: NONE, Method: PREINCUBATION
[4] = Test System: AMES SALMONELLA TYPHIMURIUM, Strain/Indicator: TA1535, Metabolic Activation: NONE, Method: PREINCUBATION
[5] = Test System: AMES SALMONELLA TYPHIMURIUM, Strain/Indicator: TA98, Metabolic Activation: NONE, Method: STANDARD PLATE
[6] = Test System: AMES SALMONELLA TYPHIMURIUM, Strain/Indicator: TA98, Metabolic Activation: RAT, LIVER, S-9, AROCLOR 1254, Method: STANDARD PLATE
[7] = Test System: AMES SALMONELLA TYPHIMURIUM, Strain/Indicator: TA100, Metabolic Activation: NONE, Method: STANDARD PLATE
[8] = Test System: AMES SALMONELLA TYPHIMURIUM, Strain/Indicator: TA100, Metabolic Activation: RAT, LIVER, S-9, AROCLOR 1254, Method: STANDARD PLATE
[9] = Test System: AMES SALMONELLA TYPHIMURIUM, Strain/Indicator: TA1535, Metabolic Activation: NONE, Method: STANDARD PLATE
[10] = Test System: AMES SALMONELLA TYPHIMURIUM, Strain/Indicator: TA1535, Metabolic Activation: RAT, LIVER, S-9, AROCLOR 1254, Method: STANDARD PLATE
[11] = Test System: AMES SALMONELLA TYPHIMURIUM, Strain/Indicator: TA1537, Metabolic Activation: NONE, Method: STANDARD PLATE
[12] = Test System: AMES SALMONELLA TYPHIMURIUM, Strain/Indicator: TA1538, Metabolic Activation: NONE, Method: STANDARD PLATE

For `CCC[CH2][Sn]([CH2]CCC)([CH2]CCC)[O][Sn]([CH2]CCC)([CH2]CCC)[CH2]CCC`, the mutagenic call (Test System: AMES SALMONELLA TYPHIMURIUM, Strain/Indicator: TA97, Metabolic Activation: HAMSTER, LIVER, S-9, AROCLOR 1254 (10 OR 30%), Method: PREINCUBATION) was “inactive; negative”, the mutagenic call [1] was “inactive; negative” and the mutagenic call (Test System: AMES SALMONELLA TYPHIMURIUM, Strain/Indicator: TA97, Metabolic Activation: RAT, LIVER, S-9, AROCLOR 1254 (10 OR 30%), Method: PREINCUBATION) was “inactive; negative”. For the same compound, the mutagenic call (Test System: AMES SALMONELLA TYPHIMURIUM, Strain/Indicator: TA98, Metabolic Activation: HAMSTER, LIVER, S-9, AROCLOR 1254 (10 OR 30%), Method: PREINCUBATION) was “inactive; negative”, the mutagenic call [2] was “inactive; negative” and the mutagenic call (Test System: AMES SALMONELLA TYPHIMURIUM, Strain/Indicator: TA98, Metabolic Activation: NONE, Method: SUSPENSION/PLATE) was “inactive; negative”. For the same compound, the mutagenic call (Test System: AMES SALMONELLA TYPHIMURIUM, Strain/Indicator: TA98, Metabolic Activation: RAT, LIVER, S-9, AROCLOR 1254 (10 OR 30%), Method: PREINCUBATION) was “inactive; negative”, the mutagenic call (Test System: AMES SALMONELLA TYPHIMURIUM, Strain/Indicator: TA100, Metabolic Activation: HAMSTER, LIVER, S-9, AROCLOR 1254 (10 OR 30%), Method: PREINCUBATION) was “inactive; negative” and the mutagenic call [3] was “inactive; negative”. The mutagenic call (Test System: AMES SALMONELLA TYPHIMURIUM, Strain/Indicator: TA100, Metabolic Activation: NONE, Method: SUSPENSION/PLATE) was “inactive; negative”, the mutagenic call (Test System: AMES SALMONELLA TYPHIMURIUM, Strain/Indicator: TA100, Metabolic Activation: RAT, LIVER, S-9, AROCLOR 1254 (10 OR 30%), Method: PREINCUBATION) was “inactive; negative” and the mutagenic call (Test System: AMES SALMONELLA TYPHIMURIUM, Strain/Indicator: TA1535, Metabolic Activation: HAMSTER, LIVER, S-9, AROCLOR 1254 (10 OR 30%), Method: PREINCUBATION) was “inactive; negative”. For the same compound, the mutagenic call [4] was “inactive; negative” and the mutagenic call (Test System: AMES SALMONELLA TYPHIMURIUM, Strain/Indicator: TA1535, Metabolic Activation: RAT, LIVER, S-9, AROCLOR 1254 (10 OR 30%), Method: PREINCUBATION) was “inactive; negative”.

`CC1=CC=C(C(C)C)CC1` was tested, and the mutagenic call (Test System: AMES SALMONELLA TYPHIMURIUM, Strain/Indicator: TA97A, Metabolic Activation: NONE, Method: STANDARD PLATE) was “inactive; negative”, the mutagenic call (Test System: AMES SALMONELLA TYPHIMURIUM, Strain/Indicator: TA97A, Metabolic Activation: RAT, LIVER, S-9, AROCLOR 1254, Method: STANDARD PLATE) was “inactive; negative” and the mutagenic call [5] was “inactive; negative”. The mutagenic call [6] was “inactive; negative”, the mutagenic call [7] was “inactive; negative” and the mutagenic call [8] was “inactive; negative”. For the same compound, the mutagenic call [9] was “inactive; negative” and the mutagenic call [10] was “inactive; negative”.

For `O=c1[nH]c(=O)n([C@H]2C[C@H](O)[C@@H](CO)O2)cc1CCCl`, the mutagenic call (End Point: IN VITRO MICRONUCLEUS, Test System: V79 CHINESE HAMSTER CELLS, Metabolic Activation: NONE) was “inactive; negative”, the mutagenic call (End Point: IN VITRO MICRONUCLEUS, Test System: V79 CHINESE HAMSTER CELLS, Metabolic Activation: RAT, LIVER, S-9, AROCLOR 1254) was “inactive; negative” and the mutagenic call (End Point: IN VIVO MICRONUCLEUS, Test System: BONE MARROW POLYCHROMATIC ERYTHROCYTES, Species: MOUSE, Strain/Sex: CD-1/MALE, FEMALE, Route: GAVAGE) was “inactive; negative”. For the same compound, the mutagenic call [1] was “inactive; negative”, the mutagenic call (Test System: AMES SALMONELLA TYPHIMURIUM, Strain/Indicator: TA97, Metabolic Activation: RAT, LIVER, S-9, AROCLOR 1254, Method: PREINCUBATION) was “inactive; negative” and the mutagenic call [2] was “inactive; negative”. The mutagenic call [5] was “inactive; negative”, the mutagenic call (Test System: AMES SALMONELLA TYPHIMURIUM, Strain/Indicator: TA98, Metabolic Activation: RAT, LIVER, S-9, AROCLOR 1254, Method: PREINCUBATION) was “inactive; negative” and the mutagenic call [6] was “inactive; negative”. For the same compound, the mutagenic call [3] was “inactive; negative”, the mutagenic call [7] was “inactive; negative” and the mutagenic call (Test System: AMES SALMONELLA TYPHIMURIUM, Strain/Indicator: TA100, Metabolic Activation: RAT, LIVER, S-9, AROCLOR 1254, Method: PREINCUBATION) was “inactive; negative”. The mutagenic call [8] was “inactive; negative”, the mutagenic call (Test System: AMES SALMONELLA TYPHIMURIUM, Strain/Indicator: TA102, Metabolic Activation: NONE, Method: PREINCUBATION) was “inactive; negative” and the mutagenic call (Test System: AMES SALMONELLA TYPHIMURIUM, Strain/Indicator: TA102, Metabolic Activation: NONE, Method: STANDARD PLATE) was “active; positive”. For the same compound, the mutagenic call (Test System: AMES SALMONELLA TYPHIMURIUM, Strain/Indicator: TA102, Metabolic Activation: RAT, LIVER, S-9, AROCLOR 1254, Method: PREINCUBATION) was “inactive; negative”, the mutagenic call (Test System: AMES SALMONELLA TYPHIMURIUM, Strain/Indicator: TA102, Metabolic Activation: RAT, LIVER, S-9, AROCLOR 1254, Method: STANDARD PLATE) was “active; positive” and the mutagenic call (Test System: AMES SALMONELLA TYPHIMURIUM, Strain/Indicator: TA104, Metabolic Activation: NONE, Method: PREINCUBATION) was “inactive; negative”. For the same compound, the mutagenic call (Test System: AMES SALMONELLA TYPHIMURIUM, Strain/Indicator: TA104, Metabolic Activation: RAT, LIVER, S-9, AROCLOR 1254, Method: PREINCUBATION) was “inactive; negative”, the mutagenic call [4] was “inactive; negative” and the mutagenic call [9] was “active; positive”. The mutagenic call (Test System: AMES SALMONELLA TYPHIMURIUM, Strain/Indicator: TA1535, Metabolic Activation: RAT, LIVER, S-9, AROCLOR 1254, Method: PREINCUBATION) was “inactive; negative”, the mutagenic call [10] was “active; positive” and the mutagenic call (Test System: AMES SALMONELLA TYPHIMURIUM, Strain/Indicator: TA1537, Metabolic Activation: NONE, Method: PREINCUBATION) was “inactive; negative”. The mutagenic call [11] was “inactive; negative”, the mutagenic call (Test System: AMES SALMONELLA TYPHIMURIUM, Strain/Indicator: TA1537, Metabolic Activation: RAT, LIVER, S-9, AROCLOR 1254, Method: PREINCUBATION) was “inactive; negative” and the mutagenic call (Test System: AMES SALMONELLA TYPHIMURIUM, Strain/Indicator: TA1537, Metabolic Activation: RAT, LIVER, S-9, AROCLOR 1254, Method: STANDARD PLATE) was “inactive; negative”. For the same compound, the mutagenic call (Test System: AMES SALMONELLA TYPHIMURIUM, Strain/Indicator: TA1538, Metabolic Activation: NONE, Method: PREINCUBATION) was “inactive; negative”, the mutagenic call [12] was “inactive; negative” and the mutagenic call (Test System: AMES SALMONELLA TYPHIMURIUM, Strain/Indicator: TA1538, Metabolic Activation: RAT, LIVER, S-9, AROCLOR 1254, Method: PREINCUBATION) was “inactive; negative”. For the same compound, the mutagenic call (Test System: AMES SALMONELLA TYPHIMURIUM, Strain/Indicator: TA1538, Metabolic Activation: RAT, LIVER, S-9, AROCLOR 1254, Method: STANDARD PLATE) was “inactive; negative” and the mutagenic call (Test System: CHINESE HAMSTER V-79, Strain/Indicator: V-79/8-AZAGUANINE, Metabolic Activation: NONE) was “active; positive”.

With `CCCCOc1ccc2nc3cc(Cl)ccc3c(NCCCNCCCl)c2n1` the mutagenic call [5] was “active; positive”, the mutagenic call [7] was “inactive; negative” and the mutagenic call [9] was “inactive; negative”. For the same compound, the mutagenic call (Test System: AMES SALMONELLA TYPHIMURIUM, Strain/Indicator: TA1536, Metabolic Activation: NONE, Method: STANDARD PLATE) was “active; positive”, the mutagenic call [11] was “active; positive” and the mutagenic call [12] was “active; positive”.
